In patent US10323038B2, “Pyrazole compounds and methods of making and using same” (ABIDE THERAPEUTICS, INC., priority 2015, dated 2019):

Key:
[1] = target: MAGL (Mus musculus (Mouse), UniProt O35678); assay: In vitro competitive activity-based protein profiling, MAGL (mouse); assay type: biochemical; conditions: 1 μM, read-out: MAGL % inh. 1 μM (mouse)
Procedure, shortened: (§1)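 Gel-based read-out: fluorescence intensity of MAGL and FAAH bands after SDS-PAGE gave serine hydrolase activity. Proteomes at 1.0 mg/mL were pretreated 30 min at 37° C with inhibitor over a concentration range, then labelled 30 min with FP-Rh or HT-01 (stock 50 μM in DMSO).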

[2] = target: FAAH (Mus musculus (Mouse), UniProt O08914); assay: In vitro competitive activity-based protein profiling, FAAH (mouse); assay type: biochemical; conditions: 1 μM, read-out: FAAH % inh. 1 μM (mouse)
Chain of FAAH (O08914 whole entry): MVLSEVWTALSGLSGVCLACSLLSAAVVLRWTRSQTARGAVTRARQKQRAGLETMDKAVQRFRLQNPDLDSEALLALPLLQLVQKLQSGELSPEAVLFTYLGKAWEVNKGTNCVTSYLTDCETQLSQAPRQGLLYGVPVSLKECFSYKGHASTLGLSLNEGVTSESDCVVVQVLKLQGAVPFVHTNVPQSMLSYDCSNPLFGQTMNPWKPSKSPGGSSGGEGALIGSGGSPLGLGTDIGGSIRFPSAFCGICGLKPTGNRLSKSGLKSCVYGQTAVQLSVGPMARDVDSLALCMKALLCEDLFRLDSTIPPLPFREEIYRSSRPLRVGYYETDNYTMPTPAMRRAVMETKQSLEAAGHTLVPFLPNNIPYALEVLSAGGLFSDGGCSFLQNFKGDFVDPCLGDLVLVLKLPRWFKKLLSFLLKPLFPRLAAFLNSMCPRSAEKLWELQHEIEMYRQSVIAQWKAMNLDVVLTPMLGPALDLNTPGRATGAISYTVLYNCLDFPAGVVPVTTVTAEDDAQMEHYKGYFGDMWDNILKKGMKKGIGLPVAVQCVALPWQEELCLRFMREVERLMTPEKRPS
Procedure, shortened: as §1

Chain of MAGL (O35678 whole entry): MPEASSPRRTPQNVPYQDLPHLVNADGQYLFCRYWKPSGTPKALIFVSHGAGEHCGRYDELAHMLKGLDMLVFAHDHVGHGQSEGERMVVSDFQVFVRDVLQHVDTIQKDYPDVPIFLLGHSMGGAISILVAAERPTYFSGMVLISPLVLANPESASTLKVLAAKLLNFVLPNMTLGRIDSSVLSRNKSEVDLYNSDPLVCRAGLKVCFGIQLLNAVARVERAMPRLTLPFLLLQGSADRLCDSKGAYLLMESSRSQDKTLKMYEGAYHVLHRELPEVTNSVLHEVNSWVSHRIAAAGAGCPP

Structure (SMILES) | inhibition at 1 µM [1] | inhibition at 1 µM [2]
CC(=O)N(C)c1cnn(C(=O)N2CC3CN(Cc4ccc(OC(C)C)cc4Cl)CC3C2)c1 (stereo not shown) [Example 253, N-(1-(5-(2-chloro-4-isopropoxybenzyl)octahydropyrrolo[3,4-c]pyrrole-2-carbonyl)-1H-pyrazol-4-yl)-N-methylacetamide] | ≥ 75% | ≥ 75%
CC(=O)N(C)c1cnn(C(=O)N2CC3CN(Cc4ccc(Oc5nc6ccccc6s5)cc4C(F)(F)F)CC3C2)c1 (stereo not shown) [Example 254, N-(1-(5-(4-(benzo[d]thiazol-2-yloxy)-2-(trifluoromethyl)benzyl)octahydropyrrolo [3,4-c]pyrrole-2-carbonyl)-1H-pyrazol-4-yl)-N-methylacetamide] | ≥ 75% | ≥ 75%
CC(=O)N(C)c1cnn(C(=O)N2CC3CN(Cc4ccc(OC(C)C)cc4C(F)(F)F)CC3C2)c1 (stereo not shown) [Example 255, N-(1-(5-(4-isopropoxy-2-(trifluoromethyl)benzyl)octahydropyrrolo [3,4-c]pyrrole-2-carbonyl)-1H-pyrazol-4-yl)-N-methylacetamide] | ≥ 75% | ≥ 75%
CC(=O)N(C)c1cnn(C(=O)N2CC3CN(Cc4ccc(OCC(=O)N5CCCC5)cc4C(F)(F)F)CC3C2)c1 (stereo not shown) [Example 256, N-methyl-N-(1-(5-(4-(2-oxo-2-(pyrrolidin-1-yl)ethoxy)-2-(trifluoromethyl)benzyl)octahydropyrrolo [3,4-c]pyrrole-2-carbonyl)-1H-pyrazol-4-yl)acetamide] | 0 to 25% | ≥ 75%
CC(=O)N(C)c1cnn(C(=O)N2CC3CN(Cc4ccc(Oc5ccnnc5)cc4Cl)CC3C2)c1 (stereo not shown) [Example 257, N-(1-(5-(2-chloro-4-(pyridazin-4-yloxy)benzyl)octahydropyrrolo[3,4-c]pyrrole-2-carbonyl)-1H-pyrazol-4-yl)-N-methylacetamide] | 50 to 75% | ≥ 75%
CC(=O)N(C)c1cnn(C(=O)N2CC3CN(Cc4ccc(Oc5ccnnc5)cc4C(F)(F)F)CC3C2)c1 (stereo not shown) [Example 258, N-methyl-N-(1-(5-(4-(pyridazin-4-yloxy)-2-(trifluoromethyl)benzyl)octahydropyrrolo [3,4-c]pyrrole-2-carbonyl)-1H-pyrazol-4-yl)acetamide] | ≥ 75% | ≥ 75%
CC(=O)N(C)c1cnn(C(=O)N2CC3CN(Cc4ccc(-c5cncnc5)cc4Cl)CC3C2)c1 (stereo not shown) [Example 259, N-(1-(5-(2-chloro-4-(pyrimidin-5-yl)benzyl)octahydropyrrolo[3,4-c]pyrrole-2-carbonyl)-1H-pyrazol-4-yl)-N-methylacetamide] | ≥ 75% | ≥ 75%
CC(=O)N(C)c1cnn(C(=O)N2CC3CN(Cc4ccc(-c5cccnn5)cc4Cl)CC3C2)c1 (stereo not shown) [Example 260, N-(1-(5-(2-chloro-4-(pyridazin-3-yl)benzyl)octahydropyrrolo[3,4-c]pyrrole-2-carbonyl)-1H-pyrazol-4-yl)-N-methylacetamide] | ≥ 75% | ≥ 75%
CC(=O)N(C)c1cnn(C(=O)N2CC3CN(Cc4ccc(-c5ncccn5)cc4Cl)CC3C2)c1 (stereo not shown) [Example 261, N-(1-(5-(2-chloro-4-(pyrimidin-2-yl)benzyl)octahydropyrrolo[3,4-c]pyrrole-2-carbonyl)-1H-pyrazol-4-yl)-N-methylacetamide] | ≥ 75% | ≥ 75%
CC(=O)N(C)c1cnn(C(=O)N2CCC3(CCN(Cc4ccc(-c5cncnc5)cc4Cl)C3)C2)c1 (stereo not shown) [Example 262, N-(1-(7-(2-chloro-4-(pyrimidin-5-yl)benzyl)-2,7-diazaspiro[4.4]nonane-2-carbonyl)-1H-pyrazol-4-yl)-N-methylacetamide] | ≥ 75% | ≥ 75%
CC(=O)N(C)c1cnn(C(=O)N2CCC3(CCN(Cc4ccc(-c5cccnn5)cc4Cl)C3)C2)c1 (stereo not shown) [Example 263, N-(1-(7-(2-chloro-4-(pyridazin-3-yl)benzyl)-2,7-diazaspiro[4.4]nonane-2-carbonyl)-1H-pyrazol-4-yl)-N-methylacetamide] | ≥ 75% | ≥ 75%
